The data set relates to Bin1b. The data set is described as follows: In vivo antisense oligonucleotide treatment, injection into mid-caput epididymis. More on the design: species or system rat. Here is the method: Sperm motility analysis. For the motility analysis, we used an HTM-IVOS system (version 10.8, Hamilton-Thorn Research) with the following settings: objective, ×4; minimum cell size, six pixels; minimum contrast, 65; minimum static contrast, 30; low VAP cut-off, 30.0; low VSL cut-off, 20.0; threshold straightness, 50%; static head size, 0.29-10.0; static head intensity, 0.29-1.11; magnification, 0.82. Sixty frames were acquired at a frame rate of 60 Hz. At least 200 tracks were measured for each specimen at 37° C. We recorded at least 30 points for each tract. The playback function of the system was used to check its accuracy.
Flow cytometry analysis. Rat sperm were stained with Bin1b polyclonal antibody at a final concentration of 1:200. In control samples, the antibody was replaced by preimmune serum at the same concentration. After incubation at 4° C. overnight, the sperm were washed twice with PBS containing 4 mg ml^−1 bovine serum albumin and incubated for 45 min at 22° C. with the secondary antibody, fluorescein isothiocyanate (FITC)-conjugated goat antibody against rabbit IgG (Zymed Laboratories) at a dilution of 1:50. After three washes, the sperm were analysed on a flow cytometer (Beckman Coulter). We analyzed 10,000 individual sperm per sample for FITC fluorescence emissions. A negative control of sperm stained by normal rabbit IgG was used to set the threshold for specific Bin1b staining. The percentage of sperm specifically stained for Bin1b was obtained by subtracting background fluorescence.
In vivo antisense oligonucleotide treatment. The skin covering the testis of a male Sprague-Dawley rat (aged >3 months) was cut open under anaesthesia and 30 μl of Bin1b antisense oligonucleotide (5′-[…]-3′; SEQ ID NO:3) or control sense oligonucleotide (5′-[…]-3′; SEQ ID NO:4) solution (20 μg ml^−) was injected into the proximal side of the mid-caput epididymis. The sperm were collected for assessment 48 h after injection. The use of animals in this project was authorized by the Animal Research Ethics Committee of The Chinese University of Hong Kong.

[1] abbreviates: versus sense oligonucleotide control, 48 h after injection.

Take “5′-AGAGTAACAAAACCTTCATG-3′ (listed as DNA, chemistry not given here) [antisense Bin1b oligonucleotide]”: the “expression of Bin1b messenger RNA in the caput epididymis (semiquantitative RT-PCR)” value (20 μg ml^−1, versus sense control) is listed as “significantly suppressed”. In addition, the “Bin1b binding to sperm collected in the distal caput region (flow cytometry)” value (versus sense control) is “considerable reduction”. For the same substance, under setting [1], the “motility of sperm from the distal caput epididymis” value is “reduced sperm motility” and the “progressive movement of sperm from the distal caput epididymis” value is reported as “significantly lower”. In addition, the “motility of sperm from the distal caput epididymis” value (versus sense oligonucleotide control, 48 h after injection, listed as Bin1b antisense oligonucleotide) was “significantly lower”.

The values above are taken from US7494780B2, “Epididymis-specific defensin for evaluating and regulating male fertility” (The Chinese University of Hong Kong, priority 2004, dated 2009).
